Data published in article PMC3656107, “Polymorphisms in the F8 Gene and MHC-II Variants as Risk Factors for the Development of Inhibitory Anti-Factor VIII Antibodies during the Treatment of Hemophilia A: A Computational Assessment” (PLoS Computational Biology, 2013).

Legend:
MHC-II DRB1*04:01 [1] = target: T1, MHC-II DRB1*04:01 (Homo sapiens, UniProt P01903+P01911, A100K/A169T/F76Y/I96L/K127E/L162R/M171V/N62H/P40V/Q125Y/R42H/S133A/S149N/S66Y/V115G/V209L/W38E); test: Cell-free REVEAL class II stability assay; conditions: half-life of peptide-MHC-II complex (h, capped at 120) x Binding Score / 100, conformational ELISA
Description: (§1) We measured the half-life of each peptide-MHC-II complex using REVEAL peptide-MHC affinity assays developed by ProImmune Ltd. (Oxford, UK). On-rates of peptides were measured over a 96-hr period at 10°C. A unique positive control peptide was used for each MHC-II allele. Samples of assembling peptide-MHC complexes were taken at defined time points and snap-frozen in liquid nitrogen prior to analysis. Assembly of peptide-MHC complexes was detected using a conformational ELISA involving an anti-HLA antibody. On-rates were calculated by fitting data to a one-phase association curve: [drawing 1] To determine the off-rates of the peptides, samples of dissociating complexes were taken at defined time points and frozen in liquid nitrogen prior to analysis. Percent denaturation of peptide-MHC complexes was also detected using a conformational ELISA. Off-rates were calculated by fitting data to a one-phase dissociation curve: [drawing 2] On- and off-rate half-life values (t1/2) were calculated from the rate constant (k) using the following equation: [drawing 3] To obtain a normalized stability score, the half-life values were multiplied by the Binding Score (see above) and divided by 100.

MHC-II DRB1*03:01 [2] = target: T2, MHC-II DRB1*03:01 (Homo sapiens, UniProt P01903+P01911, A100K/A102G/A103R/A169T/F55Y/I96L/K41T/L162R/M171V/P40S/Q125H/Q178H/Q39Y/R42S/S66N/T106N/T262R/W38E/Y61H); test: Cell-free REVEAL class II stability assay; conditions: half-life of peptide-MHC-II complex (h, capped at 120) x Binding Score / 100, conformational ELISA
Description: as §1

MHC-II DRB1*15:03 [3] = target: T3, MHC-II DRB1*15:03 (Homo sapiens, UniProt P01903+P01911, Y59H); test: Cell-free REVEAL class II stability assay; conditions: half-life of peptide-MHC-II complex (h, capped at 120) x Binding Score / 100, conformational ELISA
T3 construct: purchased ProImmune
Description: as §1

MHC-II DRB1*07:01 [4] = target: T4, MHC-II DRB1*07:01 (Homo sapiens, UniProt P01903+P01911, A100R/A102G/A103Q/D57E/D86V/E43K/F76Y/K127E/L162R/M171V/P40G/Q125H/Q99D/R33Q/R42Y/R54Q/S133A/S66F/T210M/V115G/Y107V/Y59L/Y89S); test: Cell-free REVEAL class II stability assay; conditions: half-life of peptide-MHC-II complex (h, capped at 120) x Binding Score / 100, conformational ELISA
Description: as §1

MHC-II DRB1*11:01 [5] = target: T5, MHC-II DRB1*11:01 (Homo sapiens, UniProt P01903+P01911, A100R/A169T/A87E/I96F/K41T/L162R/M171V/P40S/Q125H/Q178H/Q39Y/Q99D/R42S/S66Y/T262R/V115G/W38E); test: Cell-free REVEAL class II stability assay; conditions: half-life of peptide-MHC-II complex (h, capped at 120) x Binding Score / 100, conformational ELISA
Description: as §1

MHC-II DRB1*15:01 [6] = target: T6, MHC-II DRB1*15:01 (Homo sapiens, UniProt P01903+P01911); test: Cell-free REVEAL class II stability assay; conditions: half-life of peptide-MHC-II complex (h, capped at 120) x Binding Score / 100, conformational ELISA
T6 construct: purchased ProImmune
Description: as §1

MHC-II DRB1*04:01 [7] = target: T1, MHC-II DRB1*04:01; test: Cell-free REVEAL class II binding assay; conditions: signal of test peptide as percentage of allele-specific positive control peptide, fluorescence, conformation-specific monoclonal antibody
Text: (§2) We used a proprietary high throughput, REVEAL binding assay (ProImmune, www.proimmune.com) to estimate the binding of individual test peptides to the following MHC-II variants: DRB1*03:01, DRB1*04:01, DRB1*07:01, DRB1*11:01, DRB1*15:01 and DRB1*15:03 [28]. Detection of a peptide binding to each MHC-II protein is based on the presence or absence of the native conformation of the MHC-peptide complex. The peptide-MHC-II complex is detected by an increase in a fluorescence signal due to the binding of a specific monoclonal antibody. Each test-peptide is given a score relative to a positive control peptide, which is a known T-cell epitope for that MHC-II molecule. The score is reported quantitatively as a percentage of the signal generated by the test peptide compared with the positive control peptide. Assay performance is evaluated by including in each set of measurements an intermediate control peptide which is known to bind the MHC-II molecule but with a lower affinity than the positive control peptide. Note that the positive control peptide used to determine the binding score is different from the positive control peptides depicted in the figures, which are known T-cell epitopes identified in the FVIII molecule.

MHC-II DRB1*03:01 [8] = target: T2, MHC-II DRB1*03:01; test: Cell-free REVEAL class II binding assay; conditions: signal of test peptide as percentage of allele-specific positive control peptide, fluorescence, conformation-specific monoclonal antibody
Text: as §2

MHC-II DRB1*15:03 [9] = target: T3, MHC-II DRB1*15:03; test: Cell-free REVEAL class II binding assay; conditions: signal of test peptide as percentage of allele-specific positive control peptide, fluorescence, conformation-specific monoclonal antibody
Text: as §2

MHC-II DRB1*07:01 [10] = target: T4, MHC-II DRB1*07:01; test: Cell-free REVEAL class II binding assay; conditions: signal of test peptide as percentage of allele-specific positive control peptide, fluorescence, conformation-specific monoclonal antibody
Text: as §2

MHC-II DRB1*11:01 [11] = target: T5, MHC-II DRB1*11:01; test: Cell-free REVEAL class II binding assay; conditions: signal of test peptide as percentage of allele-specific positive control peptide, fluorescence, conformation-specific monoclonal antibody
Text: as §2

MHC-II DRB1*15:01 [12] = target: T6, MHC-II DRB1*15:01; test: Cell-free REVEAL class II binding assay; conditions: signal of test peptide as percentage of allele-specific positive control peptide, fluorescence, conformation-specific monoclonal antibody
Text: as §2

T3 sequence (P01903 26-254, other chains not shown): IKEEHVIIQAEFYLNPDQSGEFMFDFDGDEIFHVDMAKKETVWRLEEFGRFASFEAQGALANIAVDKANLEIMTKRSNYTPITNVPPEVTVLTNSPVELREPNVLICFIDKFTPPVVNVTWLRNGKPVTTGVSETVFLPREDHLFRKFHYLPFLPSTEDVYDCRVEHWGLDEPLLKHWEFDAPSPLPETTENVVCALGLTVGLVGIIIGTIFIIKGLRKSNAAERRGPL
T2 sequence (P01903 26-254 limits assumed, other chains not shown): as the sequence (P01903 26-254, other chains not shown) above
T5 sequence (P01903 26-254 limits assumed, other chains not shown): as the sequence (P01903 26-254, other chains not shown) above

| Sequence | Stability Index (MHC-II DRB1*04:01 [1]) | Stability Index (MHC-II DRB1*03:01 [2]) | Stability Index (MHC-II DRB1*15:03 [3]) | Stability Index (MHC-II DRB1*07:01 [4]) | Stability Index (MHC-II DRB1*11:01 [5]) | Stability Index (MHC-II DRB1*15:01 [6]) | Binding Score (MHC-II DRB1*04:01 [7]) [%] | Binding Score (MHC-II DRB1*03:01 [8]) [%] | Binding Score (MHC-II DRB1*15:03 [9]) [%] | Binding Score (MHC-II DRB1*07:01 [10]) [%] | Binding Score (MHC-II DRB1*11:01 [11]) [%] | Binding Score (MHC-II DRB1*15:01 [12]) [%] |
| --- | --- | --- | --- | --- | --- | --- | --- | --- | --- | --- | --- | --- |
| DVRPLYSRRLPKGVK [synthetic wild type FVIII 15 mer peptide, region of ns-SNP R484H] | 0.0 | 0.2 | 2.8 | 0.2 | 3.0 | 67.4 | 0.2 | 0.1 | 2.4 | 0.2 | 16.9 | 56.2 |
| FSSLYISQFIIMYSL [synthetic wild type FVIII 15 mer peptide] | 0.4 | 0.0 | 0.1 | 0.0 | 0.0 | 28.0 | 1.5 | 0.6 | 0.3 | 0.0 | 0.3 | 23.3 |
| GITDVRPLYSRRLPK [synthetic wild type FVIII 15 mer peptide, region of ns-SNP R484H] | 0.1 | 3.7 | 3.1 | 0.6 | 0.6 | 34.9 | 0.8 | 10.8 | 2.6 | 2.0 | 13.2 | 29.1 |
| GPTKSDPRCLTRYYS [synthetic wild type FVIII 15 mer peptide] | 0.1 | 1.6 | 0.0 | 0.0 | 0.0 | 7.2 | 0.5 | 4.8 | 3.8 | 0.0 | 1.2 | 63.6 |
| HKMVYEDTLTLFPFS [synthetic wild type FVIII 15 mer peptide] | 5.5 | 14.2 | 0.1 | 0.0 | 0.2 | 2.9 | 24.2 | 56.5 | 0.1 | 0.0 | 5.4 | 2.4 |
| IARYIRLHPTHYSIR [synthetic wild type FVIII 15 mer peptide] | 38.8 | 0.0 | 124.6 | 0.0 | 36.2 | 4055.5 | 61.3 | 1.0 | 103.9 | 0.0 | 150.5 | 3379.6 |
| IFNPPIIARYIRLHP [synthetic wild type FVIII 15 mer peptide] | 0.0 | 0.0 | 4.5 | 0.0 | 6.3 | 1469.4 | 1.7 | 0.7 | 3.8 | 0.0 | 61.5 | 1224.5 |
| IIMYSLDGKKWQTYR [synthetic wild type FVIII 15 mer peptide] | 0.7 | 1.7 | 57.3 | 0.1 | 1.4 | 2223.6 | 8.3 | 6.0 | 47.8 | 0.0 | 23.3 | 1853.0 |
| KMVYEDTLTLFPFSG [synthetic wild type FVIII 15 mer peptide] | 8.3 | 21.0 | 0.0 | 0.0 | 0.0 | 0.2 | 29.7 | 57.6 | 0.0 | 0.0 | 11.7 | 3.0 |
